Article PMC12301332, “Biased antagonism of a series of bicyclic CXCR2 intracellular allosteric modulators” (Frontiers in Pharmacology, 2025)

How the values were obtained:
[1] = biological target: T1, CXCR2 (Homo sapiens, UniProt P25025); test: NanoBRET-based G protein activation inhibition assay (REGA-SIGN Gαi1 dissociation) in HEK293A.CXCR2 cells; type: cell-based; settings: n = 3; for IC50: mean; for Imax Gαi1 (maximum observed inhibitory effect): normalized to Imax of navarixin = 100%
T1 construct: expressed in transfected cells
T1 sequence (P25025 1-360): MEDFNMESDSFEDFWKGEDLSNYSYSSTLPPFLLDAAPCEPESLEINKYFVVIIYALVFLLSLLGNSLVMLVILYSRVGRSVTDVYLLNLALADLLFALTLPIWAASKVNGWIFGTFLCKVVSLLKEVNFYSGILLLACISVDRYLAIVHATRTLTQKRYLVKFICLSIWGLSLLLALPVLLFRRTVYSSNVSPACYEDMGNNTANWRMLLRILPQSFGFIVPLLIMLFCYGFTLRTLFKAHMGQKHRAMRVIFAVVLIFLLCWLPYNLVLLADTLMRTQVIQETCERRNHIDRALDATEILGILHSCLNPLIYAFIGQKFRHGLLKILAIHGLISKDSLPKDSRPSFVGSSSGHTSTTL
Experimental: Cells were trypsinized and resuspended at 3 × 10^5 cell/mL in the growth medium, whereafter they were incubated for 2 hours at RT. Cells were transfected in suspension using FuGENE® HD Transfection Reagent at a 3:1 reagent to DNA ratio in Opti-MEMTM I Reduced-Serum Medium, with the final DNA concentration of 1 μg/μL. The transfection mixture was incubated for 10 min at RT before adding it to the cell suspension. Transfected cells were seeded at 3.0 × 10^4 cells/well in a white, clear, flat-bottom 96-well plate coated with 100 μg/mL poly-D-lysin ([…], Sigma Aldrich) and incubated for 48 h at 37°C and 5% CO2. […] (2023)]. Following the 48-h incubation period, cells were washed with the assay buffer. Compounds were serially diluted in 1:500 Nano-Glo® Vivazine^TM working solution (#N2581, Promega), and 90 μL of compound/Vivazine mix was added, followed by incubation for 45 min at 37°C and 5% CO2. Plates were transferred to the FLIPR Penta system (Molecular Devices) at 37°C, and all steps onward are automated and performed by the FLIPR Penta system. After a 10-min equilibration period, the baseline BRET signal was determined by five consecutive reads followed by automatic administration of 10 μL of 10× ligand (Table 1) to the cell plate. Changes in the BRET signal was measured for 10 min, with each read spaced by 2.5 s. […] BRET ratios were extracted from ScreenWorks software (Molecular Devices) and represent the ratio between the acceptor emission of […]2 or mNG (G protein or β-arrestin recruitment, respectively) and NLuc donor emission. The basal BRET ratio was defined as the average BRET ratio of the five consecutive readings preceding ligand addition. Changes in BRET values post ligand administration (ΔBRET) were calculated for each well as a percentage difference to the previously defined basal BRET ratio. Average ΔBRET values were baseline corrected by subtracting the average negative control BRET ratio (unstimulated condition). […] AUCs were normalized to the positive control (stimulated condition); whereafter, dose-response curves were fitted to log (inhibitor) vs response (three parameters) in GraphPad 10.2.0 (GraphPad Software). […] Calculation 1: calculation of the BRET signal. • 1. […] NC correctedΔBRET=Δ[…]. • 4. a. Neg AUC of NC correctedΔBRET=Gα activation read out. b. Pos AUC of NC correctedΔBRET=β-arrestin recruitment.

[2] = biological target: T1, CXCR2; test: NanoBRET β-arrestin1 recruitment inhibition assay (NanoLux) in HEK293A cells; type: cell-based; settings: for Imax βarr1 (maximum observed inhibitory effect): normalized to Imax of navarixin = 100%
Experimental: Cells were trypsinized and resuspended at 3 × 10^5 cell/mL in the growth medium, whereafter they were incubated for 2 hours at RT. Cells were transfected in suspension using FuGENE® HD Transfection Reagent at a 3:1 reagent to DNA ratio in Opti-MEMTM I Reduced-Serum Medium, with the final DNA concentration of 1 μg/μL. The transfection mixture was incubated for 10 min at RT before adding it to the cell suspension. Transfected cells were seeded at 3.0 × 10^4 cells/well in a white, clear, flat-bottom 96-well plate coated with 100 μg/mL poly-D-lysin ([…], Sigma Aldrich) and incubated for 48 h at 37°C and 5% CO2. HEK293A cells were transiently co-transfected with plasmids encoding β-arrestin1 protein tagged with NLuc (donor) and CXCR2 protein tagged with mNeonGreen (mNG) acceptor in a 1:10 donor to acceptor ratio, as described previously ([Luís et al., 2022]). All subsequent steps are identical to those in “NanoBRET-based G protein activation inhibition assay,” which are described above. Measurements were acquired using a 440- to 480-nm donor emission filter (#0200-6179, Molecular Devices) and a 515- to 575-nm acceptor emission filter (#0200-6203, Molecular Devices) BRET ratios were extracted from ScreenWorks software (Molecular Devices) and represent the ratio between the acceptor emission of […]2 or mNG (G protein or β-arrestin recruitment, respectively) and NLuc donor emission. The basal BRET ratio was defined as the average BRET ratio of the five consecutive readings preceding ligand addition. Changes in BRET values post ligand administration (ΔBRET) were calculated for each well as a percentage difference to the previously defined basal BRET ratio. Average ΔBRET values were baseline corrected by subtracting the average negative control BRET ratio (unstimulated condition). […] AUCs were normalized to the positive control (stimulated condition); whereafter, dose-response curves were fitted to log (inhibitor) vs response (three parameters) in GraphPad 10.2.0 (GraphPad Software). […] Calculation 1: calculation of the BRET signal. • 1. […] NC correctedΔBRET=Δ[…]. • 4. a. Neg AUC of NC correctedΔBRET=Gα activation read out. b. Pos AUC of NC correctedΔBRET=β-arrestin recruitment.

[3] = CXCL1 at EC80, mean, n = 3, read-out: IC50 βarr1
[4] = CXCL2 at EC80, mean, n = 3, read-out: IC50 βarr1
[5] = CXCL3 at EC80, mean, n = 3, read-out: IC50 βarr1
[6] = CXCL5 at EC80, mean, n = 3, read-out: IC50 βarr1
[7] = CXCL6 at EC80, mean, n = 3, read-out: IC50 βarr1
[8] = CXCL7 at EC80, mean, n = 3, read-out: IC50 βarr1
[9] = CXCL8 at EC80, mean, n = 3, read-out: IC50 βarr1

| IC50 ([1]; CXCL1 at EC80) [nM] | IC50 ([1]; CXCL2 at EC80) [nM] | Imax Gαi1 (maximum observed inhibitory effect) ([1]; CXCL2 at EC80) [%] | IC50 ([1]; CXCL3 at EC80) [nM] | IC50 ([1]; CXCL5 at EC80) [nM] | Imax Gαi1 (maximum observed inhibitory effect) ([1]; CXCL5 at EC80) [%] | IC50 ([1]; CXCL6 at EC80) [nM] | IC50 ([1]; CXCL7 at EC80) [nM] | IC50 ([1]; CXCL8 at EC80) [nM] | IC50 [2, 3] [nM] | Imax βarr1 (maximum observed inhibitory effect) ([2]; CXCL1 at EC80, n = 3) [%] | IC50 [2, 4] [nM] | Imax βarr1 (maximum observed inhibitory effect) ([2]; CXCL2 at EC80, n = 3) [%] | IC50 [2, 5] [nM] | Imax βarr1 (maximum observed inhibitory effect) ([2]; CXCL3 at EC80, n = 3) [%] | IC50 [2, 6] [nM] | Imax βarr1 (maximum observed inhibitory effect) ([2]; CXCL5 at EC80, n = 3) [%] | IC50 [2, 7] [nM] | Imax βarr1 (maximum observed inhibitory effect) ([2]; CXCL6 at EC80, n = 3) [%] | IC50 [2, 8] [nM] | Structure (SMILES) | other results |
| --- | --- | --- | --- | --- | --- | --- | --- | --- | --- | --- | --- | --- | --- | --- | --- | --- | --- | --- | --- | --- | --- |
| > 15000 | > 15000 | <50 | > 15000 | 13100 ± 4760 | 100 | > 15000 | 10100 ± 4800 | > 15000 | 1460 ± 580 | 98.15 ± 4.28 | 660 ± 210 | 92.98 ± 2.58 | 1530 ± 260 | 96.91 ± 2.10 | 1120 ± 260 | 100 | 790 ± 370 | 93.68 ± 7.03 | 340 ± 130 | CC(CCO)Nc1nc(SCc2cccc(F)c2F)nc2[nH]nnc12 (centres unmarked) [MVH-33] | Imax Gαi1 (maximum observed inhibitory effect) ([1]; CXCL1 at EC80): <50%; Imax Gαi1 (maximum observed inhibitory effect) ([1]; CXCL3 at EC80): <50%; Imax Gαi1 (maximum observed inhibitory effect) ([1]; CXCL6 at EC80): <50%; Imax Gαi1 (maximum observed inhibitory effect) ([1]; CXCL7 at EC80): 98.43 ± 2.62%; Imax Gαi1 (maximum observed inhibitory effect) ([1]; CXCL8 at EC80): <50%; Imax βarr1 (maximum observed inhibitory effect) ([2]; CXCL7 at EC80, n = 3): 100%; IC50 [2, 9]: 1510 ± 1010 nM; Imax βarr1 (maximum observed inhibitory effect) ([2]; CXCL8 at EC80, n = 3): 100% |
| > 15000 | 6240 ± 1150 | 100 | > 15000 | 10200 ± 6520 | 93.7 ± 5.53 | 7530 ± 1740 | 10900 ± 9580 | > 15000 | 980 ± 180 | 100 | 580 ± 170 | 100 | 1590 ± 430 | 100 | 840 ± 160 | 100 | 700 ± 170 | 100 | 160 ± 50 | CC(CO)Nc1nc(SCc2cccc(F)c2F)nc2cnccc12 (centres unmarked) [MVH-3] | Imax βarr1 (maximum observed inhibitory effect) ([2]; CXCL7 at EC80, n = 3): 95.75 ± 3.49%; IC50 [2, 9]: 1340 ± 450 nM; Imax βarr1 (maximum observed inhibitory effect) ([2]; CXCL8 at EC80, n = 3): 90.8 ± 4.62% |
| 2080 ± 420 | 1210 ± 630 | 100 | 14800 ± 10100 | 1430 ± 710 | 98.52 ± 2.04 | 1060 ± 750 | 750 ± 260 | 2490 ± 1240 | 170 ± 60 | 100 | 80 ± 40 | 100 | 140 ± 50 | 99.42 ± 0.85 | 90 ± 30 | 100 | 70 ± 20 | 100 | 30 ± 10 | CC(CO)Nc1nc(SCc2cccc(F)c2F)nc2oncc12 (centres unmarked) [MVH-24] | Imax Gαi1 (maximum observed inhibitory effect) ([1]; CXCL1 at EC80): 96.47 ± 3.69%; Imax Gαi1 (maximum observed inhibitory effect) ([1]; CXCL3 at EC80): 100%; Imax Gαi1 (maximum observed inhibitory effect) ([1]; CXCL6 at EC80): 100%; Imax Gαi1 (maximum observed inhibitory effect) ([1]; CXCL7 at EC80): 94.94 ± 3.57%; Imax Gαi1 (maximum observed inhibitory effect) ([1]; CXCL8 at EC80): 100%; Imax βarr1 (maximum observed inhibitory effect) ([2]; CXCL7 at EC80, n = 3): 100%; IC50 [2, 9]: 150 ± 40 nM; Imax βarr1 (maximum observed inhibitory effect) ([2]; CXCL8 at EC80, n = 3): 100%; IC50 ([2]; range across ELR+ chemokines, read-out: IC50 β-arrestin1 recruitment inhibition): 30 to 170 nM |
